The source of these data is patent US10457682B2, “Small molecules that bind MR1” (OREGON HEALTH & SCIENCE UNIVERSITY, priority 2016, dated 2019).

For one assay, the system named is MR1T clones. Put plainly: Ability of synthetic ligands to stimulate MR1T clones. It is filed as cell-based, human. The protocol:
(§1) To determine whether riboflavin, FO, PLI, and PLIII were antigens, they were tested for their ability to stimulate MR1T clones. […] (FIGS. 4A, 4B). […] To determine whether riboflavin or FO are also antagonistic, antigen presenting cells (APC) were pre-loaded with riboflavin or FO and then tested for their ability to present antigens from M. smegmatis supernatant (Msm-sup) to MR1Ts. […] PLI and PLIII were each tested for their ability to stimulate two MR1T clones with distinct TCRs.
(§2) FIGS. 4A, 4B, 4C, 4D: MR1T cell responses to synthetic ligands. A-B) MR1T cell clone D426 G11 responses to BEAS-2B cells incubated with FO (A, 10 μM, 30 μM, or 100 μM), or Riboflavin (B, 7.8 μM-500 μM) prior to addition of M. smegmatis supernatant (Msm-s) or PHA. C) MR1 cell clone D481 C7 responses to DC incubated with synthetic PLI, PLIII, RL-6,7,-diMe (DMRL), or RL-6-Me-7-OH (HMRL), at 1.56μM-200μM, or M. smegmatis (Msm), M. smegmatis supernatant (Msm-s), or PHA. D) Panel of MR1T cell clones or an HLA-B45-restricted T cell clone (D466 A10) incubated with 100 μM PLI, PLIII, DMRL, or HMRL.

Assay [1] relates to MR1T cell clone D426 G11. Put plainly: Blocking of MR1T clone response to M. smegmatis supernatant after pre-loading antigen presenting cells. The assay is classed as cell-based, human. The following applies: for blocking of MR1T clone response to Msm-sup (MAIT cell activation): APC (BEAS-2B) pre-loaded with FO 10-100 μM or riboflavin 7.8-500 μM, then M. smegmatis supernatant. The method, then: as §1, §2

The next assay addresses MR1 (Homo sapiens, UniProt Q95460). Put plainly: Binding of small molecule ligands to MR1. An excerpt:
6,7-dimethyl-5-deazalumazine (DZ) is a synthetic compound designed based on the structure and activity of FO and other known mycobacterial ligands for MR1. […] Photolumazines I and III are small molecule secondary metabolites produced by bacteria.
Binding can be detected by any procedure known to one skilled in the art, such as by physical or functional properties including cellular properties. Binding can also be detected by visualization of a label (such as a fluorescent label) conjugated to one of the molecules.
Disclosed herein is work reflecting the diversity of ligands bound by MR1 in the context of infection with different microbes. MR1 ligand diversity is detected by MR1T cells, as MR1 tetramers loaded with multiple bacterial ligands were broadly recognized by MR1T clones with distinct TCR arrangements and by PBMC from a panel of donors. […] While previous work has only identified a few riboflavin metabolites as activating MR1Ts, our results establishes that MR1 samples the broader microbial metabolome similar to how conventional MHC molecules sample the microbial peptidome and CD1 molecules sample microbial lipids and glycolipids.

In assay [2] the test system is MR1T cell clone D426 G11. The following applies: literature (Harriff 2016; Eckle 2014); cited from earlier work.
Another assay concerns the target hpMR1 (UniProt C1ITJ8+Q95460). The following applies: tandem mass spectrometry; hpMR1-bac, +EC, +MS.
For assay [3], the system named is D481_F12 and D481_A9 MR1T cell clones. Description: D481_F12 and D481_A9 MR1T cell clone responses to synthetic ligands. The following applies: 100 μM ligand (FIG. 4D). It is filed as cell-based, human. The method, then: (§3) Given the striking differences in response between D481_C7 and D426_G11, we postulated that discrete TCR usage could be associated with ligand discrimination. To test this, an expanded panel of TCR diverse MR1T clones was tested for their ability to recognize each antigen. Every clone responded robustly to APC infected with M. smegmatis (FIG. 4D). […] In contrast, the D481_C7 responded to RL-6-Me-7-OH as well as RL-6,7-diMe, PLI, and PLIII. Because TRAV1-2 negative cells were stained with the hpMR1+EC tetramer, we also tested the ability of a recently described TRAV12-2 MR1T cell clone to respond to these ligands.
as §2

A further assay deals with MR1T clone D481_C7. Put plainly: MR1T cell clone D481 C7 responses to DC incubated with synthetic ligands. The assay is classed as cell-based, human. The following applies: for response of clone D481_C7: 100 μM ligand (FIG. 4D); for IFN-γ response of clone D481_C7: DC incubated with ligand at 1.56 μM-200 μM (FIG. 4C top). The protocol:
as §1, §3, §2

Assay [4] has as its system D462_E4 TRAV12-2 MR1T cell clone. Put plainly: TRAV12-2 MR1T cell clone D462_E4 responses to synthetic ligands. It is filed as cell-based, human. The note with it: 100 μM ligand (FIG. 4D). The protocol: as §3, §2
The test system of a further assay is MR1T clone D426_G11. Put plainly: MR1T cell clone D426_G11 responses to synthetic ligands. It is filed as cell-based, human. The note with it: FIG. 4C bottom. The method, then:
as §1, §2

“Also recorded” adds a separate entry of the source. Where two headings read alike, the source gives them in different places.

Chain of hpMR1 (Q95460 23-201 limits assumed): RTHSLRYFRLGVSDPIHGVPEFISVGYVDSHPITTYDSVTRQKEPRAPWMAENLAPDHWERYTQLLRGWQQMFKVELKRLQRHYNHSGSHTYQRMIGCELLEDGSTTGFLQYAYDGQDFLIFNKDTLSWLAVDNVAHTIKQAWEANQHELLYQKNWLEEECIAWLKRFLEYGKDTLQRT
Chain of hpMR1 (C1ITJ8 198-289 limits assumed): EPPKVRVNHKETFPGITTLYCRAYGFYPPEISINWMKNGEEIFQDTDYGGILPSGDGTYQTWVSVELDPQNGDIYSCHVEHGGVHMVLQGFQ
Chain of MR1 (Q95460 23-341): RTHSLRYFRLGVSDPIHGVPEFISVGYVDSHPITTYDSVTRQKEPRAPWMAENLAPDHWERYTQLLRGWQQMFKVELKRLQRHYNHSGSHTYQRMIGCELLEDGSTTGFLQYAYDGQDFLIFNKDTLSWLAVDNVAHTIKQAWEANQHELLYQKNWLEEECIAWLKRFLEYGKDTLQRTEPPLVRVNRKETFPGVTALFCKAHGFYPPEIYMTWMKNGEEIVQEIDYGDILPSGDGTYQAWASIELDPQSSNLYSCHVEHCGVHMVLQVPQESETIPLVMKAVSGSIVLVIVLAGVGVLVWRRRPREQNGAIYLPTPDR
Chain of MR1 (P61769 21-119 partner): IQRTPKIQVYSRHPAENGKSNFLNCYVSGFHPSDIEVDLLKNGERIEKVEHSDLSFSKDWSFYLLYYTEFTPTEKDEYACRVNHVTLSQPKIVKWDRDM
Description for hpMR1: MR1 expressed in cells infected with two distinct microbes recognized by MR1Ts, E. coli and M. smegmatis, were analyzed by flow cytometry, ELISPOT assay, and mass spectrometry.
The presence and relative abundance of known MR1T ligands was assessed.
To further explore the MR1 ligandome, all ligands eluted from hpMR1-bac, +EC, and +MS were evaluated using LCMS. Fold increase was calculated for each ion/ligand in either hpMR1+MS or +EC compared to all other samples and plotted on volcano plots (FIG. 2A).
Global Natural Products Social Molecular Networking (GNPS) was used to assist in the identification of these novel ligands.

With `O=c1nc2n(C[C@H](O)[C@H](O)[C@H](O)CO)c3cc(O)ccc3cc-2c(=O)[nH]1` [FO], the “ability to stimulate MR1T clones (MR1T cell activation)” value (shortened to “ability to stimulate MR1T clones”) in the assay with MR1T clones is recorded as “Neither riboflavin nor FO was capable of MR1T cell activation”. Further, the “blocking of MR1T clone response to Msm-sup (MAIT cell activation)” value with MR1T cell clone D426 G11 [1] is listed as “blocks the activation of MAIT cells; also recorded: blocked the MR1T clone response to Msm-sup”. For the same molecule, the “antagonist potency relative to riboflavin (amount required to reach 50% inhibition)” value with MR1T cell clone D426 G11 [1] (pre-incubation of APC, response to Msm-sup) is recorded as “less FO was required to reach 50% inhibition”. Moreover, on MR1, the “binding to MR1 / MR1 ligand” value is listed as “binds MR1; also recorded: confirmed these molecules as novel MR1 ligands”.
With `Cc1cc2c(=O)[nH]c(=O)[nH]c2nc1C` [DZ, 6,7-dimethyl-5-deazalumazine], the “ability to stimulate MR1T clones” value in the assay on MR1T clones is on record as “activates MR1 restricted T cells”. The “binding to MR1 / MR1 ligand” value at MR1 is given as “binds MR1”.
In the case of `Nc1nc2ncc(C=O)nc2c(=O)[nH]1` [6-FP], the “antagonism of MR1T activation” value in the assay with MR1T cell clone D426 G11 [2] is “antagonizes MR1T activation”.
Take `Cc1nc2c(=O)[nH]c(=O)nc-2n(C[C@H](O)[C@H](O)[C@H](O)CO)c1C` [RL-6,7-diMe, reference compound]: at hpMR1, the “presence among ligands eluted from hpMR1 preparations” value (“presence among ligands eluted” below) is on record as “not found in these hpMR1 preparations”. For the same molecule, in [3], the “recognition by D481_F12 and D481_A9 MR1T cell clones” value (“recognition” for short) was “responded”. Moreover, the “response of clone D481_C7” value in the assay with MR1T clone D481_C7 is “responded”. Further, in assay [4], the “response of D462_E4 TRAV12-2 MR1T cell clone” value is “did not respond”.
As for `Cc1cc2nc3c(=O)[nH]c(=O)nc-3n(C[C@H](O)[C@H](O)[C@H](O)CO)c2cc1C` [riboflavin, reference compound], the “ability to stimulate MR1T clones” value in the assay with MR1T clones is recorded as “Neither riboflavin nor FO was capable of MR1T cell activation”. In addition, in the assay on MR1T cell clone D426 G11 [1], the “blocking of MR1T clone response to Msm-sup (MAIT cell activation)” value was “blocked the MR1T clone response to Msm-sup”. The “binding to MR1 / MR1 ligand” value at MR1 is given as “confirmed these molecules as novel MR1 ligands”.
For the molecule `O=CC=Nc1c(NC[C@H](O)[C@H](O)[C@H](O)CO)[nH]c(=O)[nH]c1=O` [5-OE-RU, 5-(2-oxoethylideneamino)-6-D-ribitylaminouracil], at hpMR1, the “presence among ligands eluted” value was “not found in these hpMR1 preparations”.
Turning to `O=c1nc2n(C[C@H](O)[C@H](O)[C@H](O)CO)c(O)c(-c3c[nH]c4ccccc34)nc-2c(=O)[nH]1` [PLIII], the “ability to stimulate MR1T clones” value in the assay on MR1T clones was “antigenic”; with MR1T clones (listed as Photolumazine III), “activated MR1 restricted T cells”. Moreover, the “IFN-γ response of clone D426_G11” value with MR1T clone D426_G11 is listed as “only modest responses”. Besides, the “binding to MR1 / MR1 ligand” value on MR1 was “confirmed these molecules as novel MR1 ligands”; at MR1 (listed as Photolumazine III), “bind MR1”. The “recognition” value in [3] was “modest or no recognition”. Moreover, the “response of clone D481_C7” value with MR1T clone D481_C7 is on record as “responded”. In addition, the “IFN-γ response of clone D481_C7” value with MR1T clone D481_C7 is recorded as “potent activating ligands similar to RL-6,7-diMe”. Also, the “response of D462_E4 TRAV12-2 MR1T cell clone” value in assay [4] was “comparable responses to RL-6-Me-7-OH and PLI that were greater than PLIII”.
`O=C(O)CCc1nc2c(=O)[nH]c(=O)nc-2n(C[C@H](O)[C@H](O)[C@H](O)CO)c1O` [PLI]: the figures for the “ability to stimulate MR1T clones” value in the assay with MR1T clones and with MR1T clones (listed as Photolumazine I) were “antigenic” and “activated MR1 restricted T cells”, respectively. Also, the “IFN-γ response of clone D426_G11” value with MR1T clone D426_G11 is on record as “only modest responses”. The “presence among ligands eluted” value at hpMR1 is recorded as “unique to hpMR1+MS”. For the same molecule, the “binding to MR1 / MR1 ligand” value is “confirmed these molecules as novel MR1 ligands” at MR1 and “bind MR1” at MR1 (listed as Photolumazine I). The “recognition” value in assay [3] is “modest or no recognition”. Besides, the “response of clone D481_C7” value in the assay with MR1T clone D481_C7 is reported as “responded”. In the assay on MR1T clone D481_C7, the “IFN-γ response of clone D481_C7” value was “potent activating ligands similar to RL-6,7-diMe”. The “response of D462_E4 TRAV12-2 MR1T cell clone” value in [4] was “comparable responses to RL-6-Me-7-OH and PLI that were greater than PLIII”.
On to `Cc1nc2c(=O)[nH]c(=O)nc-2n(C[C@H](O)[C@H](O)[C@H](O)CO)c1O` [RL-6-Me-7-OH, reference compound], for which the “recognition” value in [3] is “modest or no recognition”. The “response of clone D481_C7” value in the assay with MR1T clone D481_C7 is “responded”. The “response of D462_E4 TRAV12-2 MR1T cell clone” value in [4] is “comparable responses to RL-6-Me-7-OH and PLI that were greater than PLIII”.
